Calls of active or inactive are those of the source. The calls are words filed in the database; no cut-off is given here.
Legend:
HCT-116 = assay: cells; conditions: Homo sapiens, HCT-116, 72 h
Description: Antiproliferative activity against human HCT-116 cells assessed as cell growth inhibition measured after 72 hrs by MTS assay

MDA-MB-468 [1] = assay: Induction of apoptosis in human MDA-MB-468 cells assessed as late apoptotic cells at 40 uM measured after 72 hrs by annexinV-FITC/propidium iodide staining based flow cytometry (reference value: 13.9 %); format: functional
MDA-MB-231 [2] = assay: Downregulation of HPRT mRNA expression in Wnt3a stimulated human MDA-MB-231 cells at 10 to 40 uM measured after 24 hrs by qRT-PCR analysis; conditions: dose 10-40 µM
Mus musculus [3] = species: Mus musculus; conditions: dose 90.0 mg/kg, time 5.0 day
[4] = AUC in C57BL/6 mouse at 20 mg/kg, po via gavage measured up to 24 hrs by LC-MS/MS analysis; format: ADME, organism-based; parameters: route oral, dose 20 mg/kg, time <=24; conditions: in vivo
MDA-MB-468 [5] = assay: Induction of apoptosis in human MDA-MB-468 cells assessed as early apoptotic cells at 20 uM measured after 72 hrs by annexinV-FITC/propidium iodide staining based flow cytometry (reference value: 28.9 %); format: functional
MDA-MB-231 [6] = assay: Induction of apoptosis in human MDA-MB-231 cells assessed as late apoptotic cells at 40 uM measured after 72 hrs by annexinV-FITC/propidium iodide staining based flow cytometry (reference value: 8.8 %); format: functional
MDA-MB-231 [7] = assay: Antiinvasive activity against human MDA-MB-231 cells cultured as 3D-spheroids at 40 uM measured after 6 days by imaging analysis relative to control; format: functional; conditions: time 6 day
MDA-MB-468 [8] = assay: Inhibition of Wnt/beta-catenin transactivation signalling in Wnt3a stimulated human MDA-MB-468 cells assessed as relative activity at 6.25 uM measured after 24 hrs by TOPFlash reporter gene assay relative to control; format: cell-based; parameters: scale not given: the % may be the effect or the level left
[9] = Cmax in C57BL/6 mouse at 1 mg/kg, iv measured after 5 mins by LC-MS/MS analysis; format: ADME, organism-based; parameters: route intravenous, dose 1 mg/kg, time 5 min; conditions: in vivo
[10] = Half life in human liver microsomes at 1 uM measured up to 60 mins in presence of NADPH by LC-MS/SM analysis; format: ADME, Microsome; conditions: 1 h
MCF-10A [11] = assay: Induction of apoptosis in human MCF-10A cells assessed as early apoptotic cells at 10 uM measured after 72 hrs by annexinV-FITC/propidium iodide staining based flow cytometry (reference value: 28.9 %); format: cell-based
MCF-10A [12] = assay: cells; conditions: Homo sapiens, 72 h
Description: Cytotoxicity against human MCF-10A cells assessed as cell growth inhibition measured after 72 hrs by MTS assay

[13] = Half life in C57BL/6 mouse at 20 mg/kg, po via gavage measured up to 24 hrs by LC-MS/MS analysis; format: ADME, organism-based; conditions: in vivo
MCF-10A [14] = assay: Induction of apoptosis in human MCF-10A cells assessed as late apoptotic cells at 20 uM measured after 72 hrs by annexinV-FITC/propidium iodide staining based flow cytometry (reference value: 13.9 %); format: cell-based
Mus musculus [15] = species: Mus musculus; conditions: dose 90.0 mg/kg, time 5.0 day; remark: listed apart in the source
Mus musculus [16] = species: Mus musculus; conditions: dose 90.0 mg/kg, time 5.0 day; remark: listed apart in the source
[17] = Half life in C57BL/6 mouse at 1 mg/kg, iv measured after 5 mins by LC-MS/MS analysis; format: ADME, organism-based; conditions: in vivo
MDA-MB-231 [18] = assay: Antiproliferative activity against human MDA-MB-231 cells harboring beta-catenin pcDNA3.1 vector at 20 uM measured after 72 hrs by MTS assay; format: functional, cell-based
[19] = Oral bioavailability in C57BL/6 mouse at 20 mg/kg measured up to 24 hrs by LC-MS/MS analysis; format: ADME, organism-based; conditions: in vivo
MDA-MB-468 [20] = assay: Inhibition of Wnt/beta-catenin transactivation signalling in Wnt3a stimulated human MDA-MB-468 cells assessed as relative activity at 25 uM measured after 24 hrs by TOPFlash reporter gene assay relative to control; format: cell-based; parameters: scale not given: the % may be the effect or the level left
MDA-MB-231 [21] = assay: Induction of apoptosis in human MDA-MB-231 cells assessed as early apoptotic cells at 10 uM measured after 72 hrs by annexinV-FITC/propidium iodide staining based flow cytometry (reference value: 5.3 %); format: functional
[22] = Volume of distribution in C57BL/6 mouse at 1 mg/kg, iv measured after 5 mins by LC-MS/MS analysis; format: ADME, organism-based; conditions: in vivo
MDA-MB-231 [23] = assay: Antiproliferative activity against human MDA-MB-231 cells harboring empty pcDNA3.1 vector at 20 uM measured after 72 hrs by MTS assay; format: functional, cell-based
[24] = Half life in mouse liver microsomes at 1 uM measured up to 60 mins in presence of NADPH by LC-MS/SM analysis; format: ADME, Microsome; conditions: 1 h
MDA-MB-231 [25] = assay: Induction of apoptosis in human MDA-MB-231 cells assessed as late apoptotic cells at 20 uM measured after 72 hrs by annexinV-FITC/propidium iodide staining based flow cytometry (reference value: 8.8 %); format: functional
[26] = Solubility of the compound in 0.9% NaCl at 2 mg/ml; format: physicochemical
SW480 [27] = assay: Inhibition of Wnt/beta-catenin transactivation signalling in human SW480 cells assessed as relative activity at 1.56 uM measured after 24 hrs by TOPFlash reporter gene assay relative to control; format: cell-based; parameters: scale not given: the % may be the effect or the level left
MDA-MB-468 [28] = assay: Antiproliferative activity against human MDA-MB-468 cells harboring empty pcDNA3.1 vector at 10 uM measured after 72 hrs by MTS assay; format: functional, cell-based
[29] = Intrinsic clearance in human liver microsomes at 1 uM measured up to 60 mins in presence of NADPH by LC-MS/SM analysis; format: ADME, Microsome
[30] = Intrinsic clearance in mouse liver microsomes at 1 uM measured up to 60 mins in presence of NADPH by LC-MS/SM analysis; format: ADME, Microsome; conditions: 1 h
MDA-MB-231 [31] = assay: Antiinvasive activity against human MDA-MB-231 cells cultured as 3D-spheroids measured after 6 days by imaging analysis; format: functional, cell-based; conditions: dose 5-40 µM, time 6.0 day
MDA-MB-231 [32] = assay: Antiinvasive activity against human MDA-MB-231 cells cultured as 3D-spheroids at 10 uM measured after 6 days by imaging analysis relative to control; format: functional; conditions: time 6 day
[33] = Clearance in C57BL/6 mouse at 20 mg/kg, po via gavage measured up to 24 hrs by LC-MS/MS analysis; format: ADME, organism-based; conditions: in vivo
SW480 [34] = assay: cells; conditions: Homo sapiens, SW480, 72 h
Description: Antiproliferative activity against human SW480 cells assessed as cell growth inhibition measured after 72 hrs by MTS assay

MDA-MB-468 [35] = assay: Inhibition of Wnt/beta-catenin transactivation signalling in Wnt3a stimulated human MDA-MB-468 cells assessed as relative activity at 12.5 uM measured after 24 hrs by TOPFlash reporter gene assay relative to control; format: cell-based; parameters: scale not given: the % may be the effect or the level left
MDA-MB-468 [36] = assay: Induction of apoptosis in human MDA-MB-468 cells assessed as late apoptotic cells at 20 uM measured after 72 hrs by annexinV-FITC/propidium iodide staining based flow cytometry (reference value: 13.9 %); format: functional
MCF-10A [37] = assay: Induction of apoptosis in human MCF-10A cells assessed as late apoptotic cells at 40 uM measured after 72 hrs by annexinV-FITC/propidium iodide staining based flow cytometry (reference value: 13.9 %); format: cell-based
MDA-MB-468 [38] = assay: Induction of apoptosis in human MDA-MB-468 cells assessed as early apoptotic cells at 10 uM measured after 72 hrs by annexinV-FITC/propidium iodide staining based flow cytometry (reference value: 28.9 %); format: functional

IC50 (HCT-116): 76 µM
AUC [4]: 11.71 µM·h
Cmax [9]: 790 nM
t1/2 [10]: 38.4 min
t1/2 [13]: 184 min
t1/2 [17]: 211 min
F [19]: 83%
Vd [22]: 8 L/kg
t1/2 [24]: 9.6 min
solubility [26]: Soluble
CLint at 1 h, 1 µM [29]: 18 µL/min/mg
CLint [30]: 72 µL/min/mg
CL/F [33]: 51.1 mL/min/kg
IC50 (SW480 [34]): 24 µM
SMILES: CC(C)(Oc1cccc(N2CCC[C@@H](C(=O)N(Cc3ccc(-c4cn[nH]c4)cc3)C3CC3)C2)c1)C(=O)N1CCNCC1.Cl
Activity (MDA-MB-468 [1]): 33.4%
Activity (MDA-MB-231 [2]): inactive
inhibition (Mus musculus [3]): Active
Activity (MDA-MB-468 [5]): 34.6%
Activity (MDA-MB-231 [6]): 18.9%
Activity (MDA-MB-231 [7]): 10.9%
Activity (MDA-MB-468 [8]): 102%
Activity (MCF-10A [11]): 1.9%
IC50 (MCF-10A [12]): 92 µM
Activity (MCF-10A [14]): 17.3%
inhibition (Mus musculus [15]): Active
inhibition (Mus musculus [16]): Active
Activity (MDA-MB-231 [18]): inactive
Activity (MDA-MB-468 [20]): 89%
Activity (MDA-MB-231 [21]): 5.4%
Activity (MDA-MB-231 [23]): Active
Activity (MDA-MB-231 [25]): 23%
Activity (SW480 [27]): 95%
Activity (MDA-MB-468 [28]): Active
Activity (MDA-MB-231 [31]): Dose-Dependent Effect
Activity (MDA-MB-231 [32]): 47.5%
Activity (MDA-MB-468 [35]): 96%
Activity (MDA-MB-468 [36]): 24.6%
Activity (MCF-10A [37]): 15.3%
Activity (MDA-MB-468 [38]): 17.5%
